How the values were obtained:
[1] = test system: CT26 murine colon carcinoma cells; experiment: In vivo antitumor efficacy and safety in CT26 tumor-bearing BALB/c mice; details: for tumor weight reduction / relative tumor volume growth rate (T/C): CT26 tumor-bearing BALB/c mice; for tumor weight reduction: 21 days
From the text: Given its promising in vitro enzymatic potencies, compound NK3 was further evaluated for antitumor efficacy in vivo with a model by injecting immunocompetent BALB/c mice with CT26 murine colon carcinoma cells (Figure 5). CT26 cells, derived from the epithelial glands of BALB/C mice with colon cancer, are commonly employed as a model for investigating immunotherapies and studying host immune responses. […] Dose-dependent growth-inhibitory potency of NK3 was observed (Figure 5B).
Figure 5 In vivo antitumor activity of compound NK3 in CT26 tumor-bearing mice. […] (B) Tumor weight of the excised tumors of each group. (C) Tumor volume of the mice in each group during the observation period. (D) Body weight of the mice from each group at the end of the observation period. Body weight change of each group of mice. The data were presented as the mean ± SD. p < 0.05 (versus the vehicle control group). The antitumor assay in CT26 tumor-bearing mice was carried out in one experiment with previous work.
Pathological analysis of tissue sections from major organs (heart, liver, lung, spleen, and kidney) of CT26 tumor-bearing mice. Hematoxylin and eosin (H&E) were used to stain the organs with representative images captured. The H&E staining of CT26 tumor-bearing mice was carried out in one experiment with previous work.

SKOV3 = experiment: MTT cytotoxicity assay, SKOV3; type: cell-based; details: Homo sapiens, SK-OV-3, mean ± SD
Method: (§1) The cytotoxic activity of these three compounds was evaluated against HepG2, Hct-116, and SKOV3 cancer cells by MTT assay, using doxorubicin (DOX) as the positive control.

Hct-116 = experiment: MTT cytotoxicity assay, Hct-116; type: cell-based; details: Homo sapiens, mean ± SD
Method: as §1

HepG2 = experiment: MTT cytotoxicity assay, HepG2; type: cell-based; details: Homo sapiens, mean ± SD
Method: as §1

human IDO1 [2] = target: T1, human IDO1 (Homo sapiens, UniProt P14902); experiment: IDO1 standard enzymatic inhibition assay
[3] = test system: STAT3 nuclear translocation; experiment: Immunofluorescence staining of IL-6-induced STAT3 nuclear translocation in HepG2 cells; type: cell-based, human; details: 2 μM, IL-6 stimulation 30 min
Method: The central role of nuclear translocation in the functioning of transcription factors is evident. The activation of STAT3 transcription is reliant on its nuclear translocation and subsequent binding to target DNA [43], so we further investigated the inhibitory effect of NK3 on preventing STAT3 from translocating to the nucleus by immunofluorescence staining. To this end, HepG2 cells were treated with 2 μM NK3 for […], and then IL-6 was added to stimulate STAT3 translocation for 30 min.
Figure 9 NK3 inhibited the nuclear translocation of STAT3. […] Cells were treated with 2 μM NK3 for 12 h with or without pre-treatment with 50 ng/mL of IL-6 for 30 min. Then, cells were fixed and stained with anti-p-STAT3 and DAPI before being subjected to Zeiss LSM700 Confocal Microscope for analysis.

human IDO1 [4] = target: T1, human IDO1; experiment: SPR binding assay (Biacore T200) with IDO1; details: immobilized recombinant IDO1, 0.078-10.0 μM, read-out: KD (equilibrium dissociation constant) with IDO1
Method: A surface plasmon resonance (SPR)-based binding assay was conducted to validate the direct interaction between NK3 and IDO1 protein using a Biacore T200 optical biosensor. This analytical method is valuable for determining the kinetic and thermodynamic parameters of ligand–protein complex formation and is widely employed in the study of enzyme–enzyme/inhibitor interactions. The binding affinity between compound NK3 and IDO1 was assessed utilizing Biacore analysis software, accompanied by measurements of kinetic association and dissociation. As depicted in Figure 3, compound NK3 efficiently interacted with the immobilized protein to induce a concentration-dependent response for association or dissociation, respectively. […] The binding assays confirmed the direct binding of compound NK3 to IDO1 protein.
Figure 3 The binding affinity of NK3 with recombinant IDO1 determined by the SPR assay. Concentration from top to bottom: 0.078 μM, 0.156 μM, 0.313 μM, 0.625 μM, 1.25 μM, 2.5 μM, 5.0 μM, and 10.0 μM.

[5] = test system: human liver cancer HepG2 cells xenograft; experiment: In vivo antitumor efficacy in nude mice bearing HepG2 xenograft; details: for tumor growth inhibition (tumor weight): 21 days
From the text: In order to ascertain the viability of IDO1 as an alternative target for compound NK3, a xenograft model was established by inoculating nude mice with human liver cancer HepG2 cells, subsequent to two injections of two doses of NK3 administered at three-day intervals. […] The antitumor effect of NK3 was also reflected in a delayed increase in xenograft volume (Figure 7C).
Figure 7 In vivo antitumor activity of compound NK3 in nude mice bearing HepG2 xenograft model. (A) The images of the harvested tumors from the mice after administration with NK3 (10 and 20 mg/kg) and the positive control doxorubicin (DOX) (5 mg/kg) every 3 days for 3 weeks. (B) Tumor weight of the excised tumors of each group. (C) Tumor volume of the mice in each group during the observation period. (D) Body weight of the mice from each group at the end of the observation period. Body weight change of each group of mice. The data were presented as the mean ± SD. p < 0.05 (versus the vehicle control group). The antitumor assay in nude mice was carried out in one experiment with previous work. TEXT PRINTED IN THE PICTURE: (B) Dox: 53.0% (5 mg/kg) | (B) NK-3: 61.1% (10 mg/kg); 64.4% (20 mg/kg) DOUBTS OF THE COPYIST ABOUT THIS PICTURE: Panel B: the picture prints no measure for the percentages over the bars (53.0%, 61.1%, 64.4%). The axis reads only 'Tumor weight (g)', so they are copied without a measure.

recombinant STAT3 = recombinant STAT3 (Homo sapiens, UniProt P40763); experiment: SPR binding assay (BIAcore) with STAT3; details: recombinant STAT3, 0.078-10.0 μM, read-out: KD (equilibrium dissociation constant) with STAT3
Method: In order to further investigate the direct interaction between NK3 and STAT3, we conducted an SPR binding assay.
Figure 8 The binding affinity of NK3 with recombinant STAT3 determined by the SPR assay. Concentration from top to bottom: 0.078 μM, 0.156 μM, 0.313 μM, 0.625 μM, 1.25 μM, 2.5 μM, 5.0 μM, and 10.0 μM.

T1 sequence (P14902 whole entry): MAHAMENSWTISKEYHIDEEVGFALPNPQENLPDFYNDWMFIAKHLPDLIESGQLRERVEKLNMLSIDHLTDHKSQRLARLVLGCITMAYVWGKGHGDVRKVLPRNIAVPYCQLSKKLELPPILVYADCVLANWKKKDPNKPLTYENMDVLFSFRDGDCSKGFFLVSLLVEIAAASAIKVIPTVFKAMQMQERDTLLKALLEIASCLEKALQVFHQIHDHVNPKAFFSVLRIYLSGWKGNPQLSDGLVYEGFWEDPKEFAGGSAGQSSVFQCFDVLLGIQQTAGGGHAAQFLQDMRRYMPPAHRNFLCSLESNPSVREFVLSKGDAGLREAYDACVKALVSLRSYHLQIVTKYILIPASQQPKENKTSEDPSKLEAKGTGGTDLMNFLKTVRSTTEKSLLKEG
recombinant STAT3, sequence (P40763 whole entry, species assumed): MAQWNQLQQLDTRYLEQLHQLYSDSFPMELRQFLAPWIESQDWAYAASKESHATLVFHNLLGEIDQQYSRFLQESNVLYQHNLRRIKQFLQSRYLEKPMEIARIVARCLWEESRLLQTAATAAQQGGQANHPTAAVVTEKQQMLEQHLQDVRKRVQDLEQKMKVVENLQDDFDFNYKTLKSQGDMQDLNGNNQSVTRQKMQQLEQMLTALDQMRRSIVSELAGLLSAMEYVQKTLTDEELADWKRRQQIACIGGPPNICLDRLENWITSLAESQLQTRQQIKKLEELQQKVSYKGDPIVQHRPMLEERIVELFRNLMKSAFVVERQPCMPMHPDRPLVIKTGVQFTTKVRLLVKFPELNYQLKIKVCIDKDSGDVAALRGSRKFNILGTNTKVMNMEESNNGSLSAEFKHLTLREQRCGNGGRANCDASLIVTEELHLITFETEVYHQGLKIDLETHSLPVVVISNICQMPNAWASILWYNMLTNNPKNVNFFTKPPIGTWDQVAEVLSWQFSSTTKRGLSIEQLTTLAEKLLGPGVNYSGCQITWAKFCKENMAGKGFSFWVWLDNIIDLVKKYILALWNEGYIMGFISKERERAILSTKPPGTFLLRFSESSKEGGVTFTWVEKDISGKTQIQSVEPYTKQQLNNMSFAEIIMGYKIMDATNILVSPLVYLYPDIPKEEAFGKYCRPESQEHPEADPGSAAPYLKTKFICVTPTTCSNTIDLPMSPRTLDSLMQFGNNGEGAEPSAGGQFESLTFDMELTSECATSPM

Which tumor weight reduction ([1]; 100 mg/kg intraperitoneal) does the source give for Cn1cc(C[C@H](N)C(=O)O)c2ccccc21 [Compound 1-MT, 1-methyl-L-tryptophan, reference compound] here?
The tumor weight reduction was 45.6%.

For COc1cccc2c1C(=O)c1c(O)c3c(c(O)c1C2=O)C[C@@](O)(C(=O)CO)C[C@@H]3O[C@H]1C[C@H](N)[C@H](O)[C@H](C)O1 [DOX, doxorubicin, reference compound], which IC50 (SKOV3) is on record?
The IC50 was 0.58 ± 0.28 µM.

What about the IC50 (Hct-116) of the same compound?
The IC50 was 0.37 ± 0.02 µM.

And the IC50 (HepG2)?
Its IC50 is 0.28 ± 0.03 µM.

With Nc1nonc1C(=NO)Nc1ccc(F)c(Cl)c1 [IDO5L, reference compound] as the compound, how does the IC50 (SKOV3) read?
The IC50 was over 40 µM.

What about the IC50 (Hct-116) of the same compound?
Its IC50 is over 40 µM.

What about the tumor weight reduction ([1]; 100 mg/kg intraperitoneal) of the same compound?
Its tumor weight reduction is 70.9%.

What about the IC50 (HepG2) of the same compound?
Its IC50 is over 40 µM.

With CCCCC(CC)CNC(=O)C(Cc1ccccc1)NC1=C/C(=N/O)c2ccccc2C1=O (stereo not shown) [NK1, (Z)-N-(2-ethylhexyl)-2-((4-(hydroxyimino)-1-oxo-1,4-dihydronaphthalen-2-yl)amino)-3-phenylpropanamide] as the compound, how does the IC50 (human IDO1 [2]) read?
The IC50 was 3450 nM.

What about the IC50 (SKOV3) of the same compound?
Its IC50 is 0.95 ± 0.18 µM.

What about the IC50 (Hct-116) of the same compound?
The IC50 was 0.49 ± 0.14 µM.

What about the melting point of the same compound?
The melting point was 120.3 to 121.8 °C.

And the IC50 (HepG2)?
The IC50 was 1.28 ± 0.27 µM.

What does the source list for O=C1C(NC(Cc2ccccc2)C(=O)NCCc2ccccc2)=C/C(=N/O)c2ccccc21 (stereo not shown) [NK2, (Z)-2-((4-(hydroxyimino)-1-oxo-1,4-dihydronaphthalen-2-yl)amino)-N-phenethyl-3-phenylpropanamide]?
IC50 (human IDO1 [2]): 8220 nM; IC50 (SKOV3): 4.25 ± 1.65 µM; IC50 (Hct-116): 5.84 ± 1.34 µM; melting point: 197.2 to 198.6 °C; IC50 (HepG2): 5.08 ± 0.33 µM

With CCCNC(=O)C(Cc1ccccc1)NC1=C/C(=N/O)c2ccccc2C1=O (stereo not shown) [NK3, (Z)-2-((4-(hydroxyimino)-1-oxo-1,4-dihydronaphthalen-2-yl)amino)-3-phenyl-N-propylpropanamide] as the compound, how does the IC50 (human IDO1 [2]) read?
Its IC50 is 60 nM.

What about the STAT3 nuclear translocation [3] of the same compound?
Its STAT3 nuclear translocation is “significantly inhibited”.

And the IC50 (SKOV3)?
The IC50 was 0.48 ± 0.23 µM.

What about the IC50 (Hct-116) of the same compound?
Its IC50 is 0.18 ± 0.04 µM.

And the Kd (human IDO1 [4])?
The Kd was 160 nM.

And the “relative tumor volume growth rate (T/C)” value ([1]; 50 mg/kg)?
The value was 56.00%.

And the tumor weight reduction ([1]; 50 mg/kg intraperitoneal)?
Its tumor weight reduction is 42.8%.

What about the “relative tumor volume growth rate (T/C)” value ([1]; 100 mg/kg) of the same compound?
The value was 29.07%.

And the tumor weight reduction ([1]; 100 mg/kg intraperitoneal)?
The tumor weight reduction was 65.8%.

What about the “pathology (H&E) of heart, liver, spleen, lung, kidney” value ([1]; CT26 tumor-bearing mice) of the same compound?
Its value is “no obvious morphological and pathological changes”.

What about the “body weight change versus vehicle” value ([1]; CT26 tumor-bearing mice, 21 days of treatment) of the same compound?
Its value is “no significant change in body weight”.

What about the “tumor growth inhibition (tumor weight)” value ([5]; 10 mg/kg intravenous every 3 days) of the same compound?
Its value is 61.1%.

What about the “tumor growth inhibition (tumor weight)” value ([5]; 20 mg/kg intravenous every 3 days) of the same compound?
The value was 64.4%.

And the “body weight / tolerability” value ([5]; compared to DOX)?
Its value is “did not cause significant weight loss”.

And the IC50 (HepG2)?
Its IC50 is 0.16 ± 0.04 µM.

What about the Kd (recombinant STAT3) of the same compound?
Its Kd is 170 nM.
